{"source": "patent US12414948B2", "about": "“Methods” (INTRA-CELLULAR THERAPIES, INC., priority 2022, dated 2025)", "key": {"[1]": {"system": "serum cytokines IL-1b, IL-6, TNF-alpha, IL-10", "experiment": "Serum cytokine protein (Multiplex MSD) after acute restraint stress", "type": "in vivo, mouse", "conditions": "mice, 2 h restraint stress; Luma 3 mg/kg IP immediately before", "procedure": "Multiplex Assays. In mouse serum, protein levels of IL-1b, IL-6, IL-10 and TNF-alpha are measured using a V-Plex Meso Scale Discovery (MSD) Multiplex spot assay Mouse Neuroinflammation 1 panel (Meso Scale Diagnostics, Rockville, MD). All samples are run in duplicates or triplicates according to manufacturer instructions and analyzed with MSD Discovery Workbench software (Meso Scale Diagnostics).\nRestraint Stress Protocol.\nControl mice receive vehicle treatment and are returned to their home cage before sample collection. Protein concentration is measured using the Multiplex MSD assay V-Plex technology, normalized to the control group. Results are expressed in pg/mL."}, "Sprague-Dawley rats": {"system": "Sprague-Dawley rats", "experiment": "Reward sniffing test (female urine sniffing test, FUST), LPS-induced anhedonia", "type": "in vivo, rat", "conditions": "rats given LPS 1 mg/kg SC, label LPS = LPS + Vehicle, label Luma = Luma 1 mg/kg IP 24 h before and 24 h after LPS", "procedure": "All other reagents are obtained in the highest purity available from Sigma-Aldrich (St. Louis, MO) unless otherwise noted. […] Some rodents are given a cotreatment with a subcutaneous (SC) injection of lipopolysaccharide (LPS, 500 μg/kg; Sigma-Aldrich, ref #0127:B8) diluted in 0.9% injectable saline while control group animals receive injections of all vehicles matching the experimental conditions. […] On day 2, either no injection for naïve rats, or saline or LPS is injected (1 mg/kg, SC).\nBehavioral Evaluation. All behavioral tests are performed in the morning with adult male Sprague-Dawley rats (n=9-11 per group for the experiments with LPS, and n=13-14 per group for the naïve rats).\nReward Sniffing Test (also known also as female urine sniffing test (FUST)): In this anhedonia-based assay, rats are brought to a well-ventilated testing room under dim lighting. A sterile cotton-tipped applicator is attached to one wall in the home cage for 1 hour to habituate rats to this new object. For the 2 phases of the 5 minute test, rats are first exposed to a new cotton tip dipped in sterile water as a control that is removed at the end of the 5 minutes; 45 minutes later, another cotton tip previously dipped into fresh rat urine collected from females of the same strain is attached to the cage wall. Male behavior is video recorded and latency to first sniff of the cotton tip and total time spent sniffing the cotton-tipped applicator are determined.\nIn a pilot study, a dose response curve is conducted with varying doses of LPS to select an optimal dose for inducing an anhedonic response in rats. Based on these studies, a SC dose of 1 mg/kg LPS is selected. […] This is followed 24 hours later by an injection of LPS (1 mg/kg; SC). […] Control rats are administered saline instead of LPS and vehicle instead of lumateperone. Anhedonia is assessed using FUST (female urine sniffing test) and measuring latency to sniff the reward combined with time spent sniffing the reward. Latency sniffing water is used as a control. […]"}}}
{"compound": "CN1CCN2c3c(cccc31)[C@@H]1CN(CCCC(=O)c3ccc(F)cc3)CC[C@@H]12", "note": "[Luma, lumateperone]", "values": [{"measurement": "Serum cytokine concentration IL-1b", "setting": "[1]", "result": 0.81, "unit": "pg/mL"}]}
{"compound": "lipopolysaccharide [LPS, reference compound]", "values": [{"measurement": "FUST Latency sniffing water", "setting": "Sprague-Dawley rats; control test", "result": 274.27, "unit": "s"}, {"measurement": "FUST Latency sniffing reward", "setting": "Sprague-Dawley rats", "result": 164.2, "unit": "s"}, {"measurement": "FUST Time sniffing reward", "setting": "Sprague-Dawley rats", "result": 11.11, "unit": "s"}]}
